This experiment addresses T1, alpha-glucosidase enzyme from Saccharomyces cerevisiae (EC 3.2.1.20) (Saccharomyces cerevisiae, UniProt P53341).
T1 construct: purchased Sigma-Aldrich
Nature of the experiment: biochemical. Format: biochemical. The protocol:
Briefly, the enzyme from Saccharomyces cerevisiae (EC 3.2.1.20) and the pNPG substrate were dissolved in 0.1 M phosphate buffer (pH 7), which was enriched by bovine serum albumin and sodium azide. Standards and samples were suspended in 20% (v/v) of DMSO in a water solution. In a 96-well plate, 50 µl of PBS, standards, samples and enzyme solutions were mixed and incubated for 2 min at 37 °C. At last, 50 µl of 4 mM pNPG was added and incubated for 5 min before the kinetic parameter measurement, as described earlier.
The velocity was examined by a linear relationship equation between absorbance and time, Equation (1).
The percent inhibition was determined for the highest velocity as:% Inhibition = (V control − V sample)/(V control) × 100(2)
The IC50 value was calculated by using a calibration curve equation between samples at five different concentrations and inhibition percentages.

Setting [1] is: isolated compounds (Table 2), read-out: IC50 (converted).

Each structure is given as a SMILES string. Read-outs that look alike come from different tables or passages of the source.

T1 sequence (P53341 whole entry): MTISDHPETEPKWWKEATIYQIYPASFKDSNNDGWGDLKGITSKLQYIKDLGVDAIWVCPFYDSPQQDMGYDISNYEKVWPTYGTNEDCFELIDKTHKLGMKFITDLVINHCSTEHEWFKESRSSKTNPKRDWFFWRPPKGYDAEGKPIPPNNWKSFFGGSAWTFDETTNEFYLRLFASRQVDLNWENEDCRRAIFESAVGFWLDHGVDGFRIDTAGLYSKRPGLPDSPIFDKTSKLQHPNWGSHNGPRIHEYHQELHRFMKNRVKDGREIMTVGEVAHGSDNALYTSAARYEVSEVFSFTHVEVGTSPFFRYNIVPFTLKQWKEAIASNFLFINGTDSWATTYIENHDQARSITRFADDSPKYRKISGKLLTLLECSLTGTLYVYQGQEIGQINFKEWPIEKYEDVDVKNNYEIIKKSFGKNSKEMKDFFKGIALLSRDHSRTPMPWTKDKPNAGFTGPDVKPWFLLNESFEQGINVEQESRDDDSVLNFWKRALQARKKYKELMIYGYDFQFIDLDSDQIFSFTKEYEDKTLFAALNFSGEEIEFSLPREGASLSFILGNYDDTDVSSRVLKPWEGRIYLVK

As for `O=c1cc(-c2ccc(O)c(O)c2)oc2cc(O)ccc12` [5-deoxyluteolin], under setting [1], the IC50 is 2130 µM. For the same compound, the “IC50 fold higher compared to luteolin” value (ratio of IC50 values) is given as 3.5 fold.

Regarding `COc1ccc(/C=C/C(=O)c2ccc(O)cc2O)cc1` [4-methyl ether isoliquiritigenin], the IC50 under setting [1] is 814 µM.

For `COc1ccc(/C=C/C(=O)c2ccc(O)cc2O)cc1O` [3,2’ ,4’-trihydroxy-4-methoxychalcone, 3,2’,4’-trihydroxy-4-methoxychalcone], under setting [1], the IC50 is 4450 µM.

On to `O=c1cc(-c2ccc(O)c(O)c2)oc2cc(O)cc(O)c12` [Luteolin, luteolin], for which, under setting [1], the IC50 was 573 µM.

On to `C[C@@H]1O[C@@H](Oc2c(-c3ccc(O)c(O)c3)oc3cc(O)cc(O)c3c2=O)[C@H](O)[C@H](O)[C@H]1O` [Quercitrin, quercitrin], for which the midpoint of inhibition, the IC50, lay at 111 µM. Besides, the “inhibitory activity drop compared with quercetin (sugar moiety added)” value (ratio of IC50 values) is given as “roughly 10 fold”.

(Values after article PMC8512368, “Alpha-Glucosidase Inhibitory Assay-Screened Isolation and Molecular Docking Model from Bauhinia pulla Active Compounds” (Molecules, 2021).)
